Results reported in patent publication US8802597B2, “Herbicidal pyrimidines” (E I du Pont de Nemours and Company, priority 2003, dated 2014).
Read-outs that look alike come from different tables or passages of the source.

How the values were obtained:
Type in all cases: in vivo
[1] = test system: barnyardgrass (Echinochloa crus-galli); assay: Test A pre/postemergence
Procedure, shortened: (§1)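 Ratings: 0 = no effect, 100 = complete control, assessed visually about ten days post-treatment in a greenhouse. Applications: soil-directed preemergence spray and postemergence spray on 1- to 2-leaf plants, both using a surfactant-containing non-phytotoxic solvent formulation.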

[2] = test system: crabgrass (Digitaria sanguinalis); assay: Test A pre/postemergence
Procedure, shortened: as §1

[3] = test system: giant foxtail (Setaria faberi); assay: Test A pre/postemergence
Procedure, shortened: as §1

[4] = test system: morningglory (Ipomoea spp.); assay: Test A pre/postemergence
Procedure, shortened: as §1

[5] = test system: redroot pigweed (Amaranthus retroflexus); assay: Test A pre/postemergence
Procedure, shortened: as §1

[6] = test system: velvetleaf (Abutilon theophrasti); assay: Test A pre/postemergence
Procedure, shortened: as §1

[7] = test system: cocklebur (Xanthium strumarium); assay: Test C pre/postemergence; settings: for pest or weed control at 16 g/ha / pest or weed control at 31 g/ha / pest or weed control at 62 g/ha / pest or weed control at 125 g/ha: Xanthium strumarium
Procedure, shortened: (§2)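 Greenhouse herbicide screen, visual readout. Compound in solvent/surfactant applied preemergence at planting or postemergence to 1- to 4-leaf plants; assessed at 12–14 days on a 0–100 control scale.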

[8] = test system: common ragweed (Ambrosia elatior); assay: Test C pre/postemergence; settings: for pest or weed control at 16 g/ha / pest or weed control at 31 g/ha / pest or weed control at 62 g/ha / pest or weed control at 125 g/ha: Ambrosia artemisiifolia
Procedure, shortened: as §2

corn (Zea mays) = assay: Test C pre/postemergence; settings: for Corn plant response rating (crop injury, 0 = no effect, 100 = complete kill) at 16 g/ha / Corn plant response rating (crop injury, 0 = no effect, 100 = complete kill) at 31 g/ha / Corn plant response rating (crop injury, 0 = no effect, 100 = complete kill) at 62 g/ha / Corn plant response rating (crop injury, 0 = no effect, 100 = complete kill) at 125 g/ha: Zea mays
Procedure, shortened: as §2

[9] = test system: lambsquarters (Chenopodium album); assay: Test C pre/postemergence; settings: for pest or weed control at 16 g/ha / pest or weed control at 31 g/ha / pest or weed control at 62 g/ha / pest or weed control at 125 g/ha: Chenopodium album
Procedure, shortened: as §2

[10] = test system: chickweed (Stellaria media); assay: Test C postemergence
Procedure, shortened: as §2

[11] = Postemergence, 125 g ai/ha, 0 to 100 scale (0 no effect, 100 complete control)
[12] = Postemergence, 500 g ai/ha, 0 to 100 scale (0 no effect, 100 complete control)
[13] = Preemergence, 125 g ai/ha, 0 to 100 scale where 0 is no effect and 100 is complete control, approximately ten days
[14] = Preemergence, 500 g ai/ha, 0 to 100 scale where 0 is no effect and 100 is complete control, approximately ten days
[15] = Postemergence, 125 g ai/ha, scale 0 to 100 (0 no effect, 100 complete control)

CCOC(=O)c1nc(-c2ccc(I)cc2)nc(N)c1Cl [Compound 133]
Plant response rating, Barnyardgrass [1, 11]: 10
Plant response rating, Barnyardgrass [1, 12]: 40
Plant response rating, Barnyardgrass [1, 13]: 0
Plant response rating, Barnyardgrass [1, 14]: 15
Plant response rating, Crabgrass [2, 11]: 30
Plant response rating, Crabgrass [2, 12]: 55
Plant response rating, Crabgrass [2, 13]: 0
Plant response rating, Crabgrass [2, 14]: 45
Plant response rating, Foxtail, Giant [3, 11]: 15
Plant response rating, Foxtail, Giant [3, 12]: 60
Plant response rating, Foxtail, Giant [3, 13]: 0
Plant response rating, Foxtail, Giant [3, 14]: 30
Plant response rating, Morningglory [4, 11]: 70
Plant response rating, Morningglory [4, 12]: 85
Plant response rating, Morningglory [4, 13]: 0
Plant response rating, Morningglory [4, 14]: 35
Plant response rating, Pigweed [5, 11]: 80
Plant response rating, Pigweed [5, 12]: 90
Plant response rating, Pigweed [5, 13]: 10
Plant response rating, Pigweed [5, 14]: 65
Plant response rating, Velvetleaf [6, 11]: 80
Plant response rating, Velvetleaf [6, 12]: 85
Plant response rating, Velvetleaf [6, 13]: 10
Plant response rating, Velvetleaf [6, 14]: 30
Plant response rating (scale of 0 to 100), Cocklebur ([7]; Postemergence, 16 g ai/ha): 75
Plant response rating (scale of 0 to 100), Cocklebur ([7]; Postemergence, 31 g ai/ha): 85
Plant response rating (scale of 0 to 100), Cocklebur ([7]; Postemergence, 62 g ai/ha): 95
Cocklebur plant response rating [7, 15]: 95
Plant response rating (scale of 0 to 100), Ragweed ([8]; Postemergence, 16 g ai/ha): 80
Plant response rating (scale of 0 to 100), Ragweed ([8]; Postemergence, 31 g ai/ha): 80
Plant response rating (scale of 0 to 100), Ragweed ([8]; Postemergence, 62 g ai/ha): 85
Ragweed plant response rating [8, 15]: 95
Plant response rating (scale of 0 to 100), Corn (corn (Zea mays); Postemergence, 16 g ai/ha): 35
Plant response rating (scale of 0 to 100), Corn (corn (Zea mays); Postemergence, 31 g ai/ha): 40
Plant response rating (scale of 0 to 100), Corn (corn (Zea mays); Postemergence, 62 g ai/ha): 60
Corn plant response rating (corn (Zea mays); [15]): 80
Plant response rating (scale of 0 to 100), Lambsquarters ([9]; Postemergence, 16 g ai/ha): 95
Plant response rating (scale of 0 to 100), Lambsquarters ([9]; Postemergence, 31 g ai/ha): 95
Plant response rating (scale of 0 to 100), Lambsquarters ([9]; Postemergence, 62 g ai/ha): 95
Lambsquarters plant response rating [9, 15]: 100
Plant response rating (scale of 0 to 100), Chickweed ([10]; 16 g ai/ha): 0
Plant response rating (scale of 0 to 100), Chickweed ([10]; 31 g ai/ha): 10
Plant response rating (scale of 0 to 100), Chickweed ([10]; 62 g ai/ha): 20
Chickweed plant response rating ([10]; 125 g ai/ha, scale 0 to 100 (0 no effect, 100 complete control)): 45

COC(=O)c1nc(C2CC2)nc(N)c1F [Compound 25]
pest or weed control at 16 g/ha ([7]; post-emergence, Postemergence, 16 g ai/ha, read-out: Plant response rating (scale of 0 to 100), Cocklebur): 70%
pest or weed control at 31 g/ha ([7]; post-emergence, Postemergence, 31 g ai/ha, read-out: Plant response rating (scale of 0 to 100), Cocklebur): 85%
pest or weed control at 62 g/ha ([7]; post-emergence, Postemergence, 62 g ai/ha, scale 0 to 100 (0 no effect, 100 complete control), read-out: Cocklebur plant response rating): 90%
pest or weed control at 125 g/ha ([7]; post-emergence, Postemergence, 125 g ai/ha, scale 0 to 100 (0 no effect, 100 complete control), read-out: Cocklebur plant response rating): 90%
pest or weed control at 16 g/ha ([7]; pre-emergence, Preemergence, 16 g ai/ha, scale 0 to 100, 0 no effect, 100 complete control, read-out: Plant response rating, Cocklebur): 0%
pest or weed control at 31 g/ha ([7]; pre-emergence, Preemergence, 31 g ai/ha, scale 0 to 100, 0 no effect, 100 complete control, read-out: Plant response rating, Cocklebur): 20%
pest or weed control at 62 g/ha ([7]; pre-emergence, Preemergence, 62 g ai/ha, scale 0 to 100, 0 no effect, 100 complete control, read-out: Plant response rating, Cocklebur): 60%
pest or weed control at 125 g/ha ([7]; pre-emergence, Preemergence, 125 g ai/ha, scale 0 to 100, read-out: Plant response rating, Cocklebur): 85%
pest or weed control at 16 g/ha ([8]; post-emergence, Postemergence, 16 g ai/ha, read-out: Plant response rating (scale of 0 to 100), Ragweed): 40%
pest or weed control at 31 g/ha ([8]; post-emergence, Postemergence, 31 g ai/ha, read-out: Plant response rating (scale of 0 to 100), Ragweed): 50%
pest or weed control at 62 g/ha ([8]; post-emergence, Postemergence, 62 g ai/ha, scale 0 to 100 (0 no effect, 100 complete control), read-out: Ragweed plant response rating): 65%
pest or weed control at 125 g/ha ([8]; post-emergence, Postemergence, 125 g ai/ha, scale 0 to 100 (0 no effect, 100 complete control), read-out: Ragweed plant response rating): 70%
pest or weed control at 16 g/ha ([8]; pre-emergence, Preemergence, 16 g ai/ha, scale 0 to 100, 0 no effect, 100 complete control, read-out: Plant response rating, Ragweed): 0%
pest or weed control at 31 g/ha ([8]; pre-emergence, Preemergence, 31 g ai/ha, scale 0 to 100, 0 no effect, 100 complete control, read-out: Plant response rating, Ragweed): 70%
pest or weed control at 62 g/ha ([8]; pre-emergence, Preemergence, 62 g ai/ha, scale 0 to 100, 0 no effect, 100 complete control, read-out: Plant response rating, Ragweed): 70%
pest or weed control at 125 g/ha ([8]; pre-emergence, Preemergence, 125 g ai/ha, scale 0 to 100, read-out: Plant response rating, Ragweed): 85%
Corn plant response rating (crop injury, 0 = no effect, 100 = complete kill) at 16 g/ha (corn (Zea mays); post-emergence, Postemergence, 16 g ai/ha, read-out: Plant response rating (scale of 0 to 100), Corn): 0%
Corn plant response rating (crop injury, 0 = no effect, 100 = complete kill) at 31 g/ha (corn (Zea mays); post-emergence, Postemergence, 31 g ai/ha, read-out: Plant response rating (scale of 0 to 100), Corn): 0%
Corn plant response rating (crop injury, 0 = no effect, 100 = complete kill) at 62 g/ha (corn (Zea mays); post-emergence, Postemergence, 62 g ai/ha, scale 0 to 100 (0 no effect, 100 complete control), read-out: Corn plant response rating): 0%
Corn plant response rating (crop injury, 0 = no effect, 100 = complete kill) at 125 g/ha (corn (Zea mays); post-emergence, Postemergence, 125 g ai/ha, scale 0 to 100 (0 no effect, 100 complete control), read-out: Corn plant response rating): 0%
Corn plant response rating (crop injury, 0 = no effect, 100 = complete kill) at 16 g/ha (corn (Zea mays); pre-emergence, Preemergence, 16 g ai/ha, scale 0 to 100, 0 no effect, 100 complete control, read-out: Plant response rating, Corn): 0%
Corn plant response rating (crop injury, 0 = no effect, 100 = complete kill) at 31 g/ha (corn (Zea mays); pre-emergence, Preemergence, 31 g ai/ha, scale 0 to 100, 0 no effect, 100 complete control, read-out: Plant response rating, Corn): 0%
Corn plant response rating (crop injury, 0 = no effect, 100 = complete kill) at 62 g/ha (corn (Zea mays); pre-emergence, Preemergence, 62 g ai/ha, scale 0 to 100, 0 no effect, 100 complete control, read-out: Plant response rating, Corn): 0%
Corn plant response rating (crop injury, 0 = no effect, 100 = complete kill) at 125 g/ha (corn (Zea mays); pre-emergence, Preemergence, 125 g ai/ha, scale 0 to 100, read-out: Plant response rating, Corn): 0%
pest or weed control at 16 g/ha ([9]; post-emergence, Postemergence, 16 g ai/ha, read-out: Plant response rating (scale of 0 to 100), Lambsquarters): 30%
pest or weed control at 31 g/ha ([9]; post-emergence, Postemergence, 31 g ai/ha, read-out: Plant response rating (scale of 0 to 100), Lambsquarters): 60%
pest or weed control at 62 g/ha ([9]; post-emergence, Postemergence, 62 g ai/ha, scale 0 to 100 (0 no effect, 100 complete control), read-out: Lambsquarters plant response rating): 85%
pest or weed control at 125 g/ha ([9]; post-emergence, Postemergence, 125 g ai/ha, scale 0 to 100 (0 no effect, 100 complete control), read-out: Lambsquarters plant response rating): 90%
pest or weed control at 16 g/ha ([9]; pre-emergence, Preemergence, 16 g ai/ha, scale 0 to 100, 0 no effect, 100 complete control, read-out: Plant response rating, Lambsquarters): 0%
pest or weed control at 31 g/ha ([9]; pre-emergence, Preemergence, 31 g ai/ha, scale 0 to 100, 0 no effect, 100 complete control, read-out: Plant response rating, Lambsquarters): 0%
pest or weed control at 62 g/ha ([9]; pre-emergence, Preemergence, 62 g ai/ha, scale 0 to 100, 0 no effect, 100 complete control, read-out: Plant response rating, Lambsquarters): 30%
pest or weed control at 125 g/ha ([9]; pre-emergence, Preemergence, 125 g ai/ha, scale 0 to 100, read-out: Plant response rating, Lambsquarters): 50%
pest or weed control at 16 g/ha ([10]; Stellaria media, post-emergence, 16 g ai/ha, read-out: Plant response rating (scale of 0 to 100), Chickweed): 0%
pest or weed control at 62 g/ha ([10]; Stellaria media, post-emergence, 62 g ai/ha, scale 0 to 100 (0 no effect, 100 complete control), read-out: Chickweed plant response rating): 40%
pest or weed control at 125 g/ha ([10]; Stellaria media, post-emergence, 125 g ai/ha, scale 0 to 100 (0 no effect, 100 complete control), read-out: Chickweed plant response rating): 85%
